Assay results: the NIST ThermoML archive (doi:10.1016/j.fluid.2014.09.014)
Numbers after ± are expanded uncertainties.

Assay: refractive index (other wavelength) (dimensionless); xn = mol fraction of the nth substance listed
Settings: 318.15 K, 101 kPa, Liquid, Standard Abbe refractometry

In the case of `CC(C)OC(C)C` [diisopropyl ether] + CO, the refractive index (Wavelength=589.3 nm, x2 = 0.609) is reported as 1.3468 ± 0.00034, the refractive index (Wavelength=589.3 nm, x2 = 0.6529) is reported as 1.34529 ± 0.00034 and the refractive index (Wavelength=589.3 nm, x2 = 0.7504) is reported as 1.34133 ± 0.00034. For the same compound, the refractive index (Wavelength=589.3 nm, x2 = 0.804) was 1.33536 ± 0.00037, the refractive index (Wavelength=589.3 nm, x2 = 0.807) was 1.33777 ± 0.00036 and the refractive index (Wavelength=589.3 nm, x2 = 0.8727) was 1.33406 ± 0.00033. For the same compound, the refractive index (Wavelength=589.3 nm, x2 = 0.9233) was 1.3261 ± 0.00032, the refractive index (Wavelength=589.3 nm, x2 = 0.9253) was 1.32772 ± 0.00032 and the refractive index (Wavelength=589.3 nm, x2 = 0.9527) was 1.32469 ± 0.00032. It also gave a refractive index (Wavelength=589.3 nm, x2 = 0.9773) of 1.32173 ± 0.00032, a refractive index (Wavelength=589.3 nm, x2 = 0.989) of 1.32048 ± 0.00032 and a refractive index (Wavelength=589.3 nm, x2 = 0.9964) of 1.31963 ± 0.00032. It also gave a refractive index (Wavelength=632.8 nm, x2 = 0) of 1.3529 ± 0.00043, a refractive index (Wavelength=632.8 nm, x2 = 0.0423) of 1.35285 ± 0.00043 and a refractive index (Wavelength=632.8 nm, x2 = 0.0424) of 1.35283 ± 0.00043. The refractive index (Wavelength=632.8 nm, x2 = 0.082) was 1.35285 ± 0.00042, the refractive index (Wavelength=632.8 nm, x2 = 0.0822) was 1.35295 ± 0.00042 and the refractive index (Wavelength=632.8 nm, x2 = 0.1171) was 1.3529 ± 0.00041. For the same compound, the refractive index (Wavelength=632.8 nm, x2 = 0.1271) was 1.35289 ± 0.00041, the refractive index (Wavelength=632.8 nm, x2 = 0.1827) was 1.35273 ± 0.0004 and the refractive index (Wavelength=632.8 nm, x2 = 0.2162) was 1.35262 ± 0.0004. The refractive index (Wavelength=632.8 nm, x2 = 0.251) was 1.35213 ± 0.00039, the refractive index (Wavelength=632.8 nm, x2 = 0.3298) was 1.35259 ± 0.00038 and the refractive index (Wavelength=632.8 nm, x2 = 0.3577) was 1.35147 ± 0.00038. It also gave a refractive index (Wavelength=632.8 nm, x2 = 0.4497) of 1.35038 ± 0.00038, a refractive index (Wavelength=632.8 nm, x2 = 0.4525) of 1.35098 ± 0.00038 and a refractive index (Wavelength=632.8 nm, x2 = 0.522) of 1.34869 ± 0.00035. For the same compound, the refractive index (Wavelength=632.8 nm, x2 = 0.5543) was 1.34779 ± 0.00035, the refractive index (Wavelength=632.8 nm, x2 = 0.609) was 1.34566 ± 0.00034 and the refractive index (Wavelength=632.8 nm, x2 = 0.6529) was 1.34413 ± 0.00034. It also gave a refractive index (Wavelength=632.8 nm, x2 = 0.7504) of 1.34018 ± 0.00034, a refractive index (Wavelength=632.8 nm, x2 = 0.804) of 1.33421 ± 0.00035 and a refractive index (Wavelength=632.8 nm, x2 = 0.807) of 1.33591 ± 0.00034. It also gave a refractive index (Wavelength=632.8 nm, x2 = 0.8727) of 1.33294 ± 0.00033, a refractive index (Wavelength=632.8 nm, x2 = 0.9233) of 1.32501 ± 0.00032 and a refractive index (Wavelength=632.8 nm, x2 = 0.9253) of 1.32665 ± 0.00032. The refractive index (Wavelength=632.8 nm, x2 = 0.9527) was 1.32362 ± 0.00032, the refractive index (Wavelength=632.8 nm, x2 = 0.9773) was 1.32066 ± 0.00032 and the refractive index (Wavelength=632.8 nm, x2 = 0.989) was 1.31944 ± 0.00032. For the same compound, the refractive index (Wavelength=632.8 nm, x2 = 0.9964) was 1.31859 ± 0.00032, the refractive index (Wavelength=644 nm, x2 = 0) was 1.35259 ± 0.00044 and the refractive index (Wavelength=644 nm, x2 = 0.0423) was 1.35256 ± 0.00043. The refractive index (Wavelength=644 nm, x2 = 0.0424) was 1.35253 ± 0.00043, the refractive index (Wavelength=644 nm, x2 = 0.082) was 1.35255 ± 0.00042 and the refractive index (Wavelength=644 nm, x2 = 0.0822) was 1.35267 ± 0.00042. For the same compound, the refractive index (Wavelength=644 nm, x2 = 0.1171) was 1.35259 ± 0.00041, the refractive index (Wavelength=644 nm, x2 = 0.1271) was 1.3526 ± 0.00041 and the refractive index (Wavelength=644 nm, x2 = 0.1827) was 1.35243 ± 0.0004. It also gave a refractive index (Wavelength=644 nm, x2 = 0.2162) of 1.35233 ± 0.0004, a refractive index (Wavelength=644 nm, x2 = 0.251) of 1.35185 ± 0.00039 and a refractive index (Wavelength=644 nm, x2 = 0.3298) of 1.35229 ± 0.00038. For the same compound, the refractive index (Wavelength=644 nm, x2 = 0.3577) was 1.3512 ± 0.00038, the refractive index (Wavelength=644 nm, x2 = 0.4497) was 1.3501 ± 0.00038 and the refractive index (Wavelength=644 nm, x2 = 0.4525) was 1.35071 ± 0.00038. For the same compound, the refractive index (Wavelength=644 nm, x2 = 0.522) was 1.34842 ± 0.00035, the refractive index (Wavelength=644 nm, x2 = 0.5543) was 1.34751 ± 0.00035 and the refractive index (Wavelength=644 nm, x2 = 0.609) was 1.34538 ± 0.00034. It also gave a refractive index (Wavelength=644 nm, x2 = 0.6529) of 1.34386 ± 0.00034, a refractive index (Wavelength=644 nm, x2 = 0.7504) of 1.3399 ± 0.00034 and a refractive index (Wavelength=644 nm, x2 = 0.804) of 1.33396 ± 0.00035. For the same compound, the refractive index (Wavelength=644 nm, x2 = 0.807) was 1.33566 ± 0.00034, the refractive index (Wavelength=644 nm, x2 = 0.8727) was 1.33269 ± 0.00033 and the refractive index (Wavelength=644 nm, x2 = 0.9233) was 1.32477 ± 0.00032. It also gave a refractive index (Wavelength=644 nm, x2 = 0.9253) of 1.32641 ± 0.00032, a refractive index (Wavelength=644 nm, x2 = 0.9527) of 1.32339 ± 0.00032 and a refractive index (Wavelength=644 nm, x2 = 0.9773) of 1.32042 ± 0.00032. For the same compound, the refractive index (Wavelength=644 nm, x2 = 0.989) was 1.31921 ± 0.00032, the refractive index (Wavelength=644 nm, x2 = 0.9964) was 1.31836 ± 0.00032 and the refractive index (Wavelength=706.5 nm, x2 = 0) was 1.3512 ± 0.00043. For the same compound, the refractive index (Wavelength=706.5 nm, x2 = 0.0423) was 1.35117 ± 0.00043, the refractive index (Wavelength=706.5 nm, x2 = 0.0424) was 1.35116 ± 0.00043 and the refractive index (Wavelength=706.5 nm, x2 = 0.082) was 1.35115 ± 0.00042. For the same compound, the refractive index (Wavelength=706.5 nm, x2 = 0.0822) was 1.35128 ± 0.00042, the refractive index (Wavelength=706.5 nm, x2 = 0.1171) was 1.3512 ± 0.00041 and the refractive index (Wavelength=706.5 nm, x2 = 0.1271) was 1.35122 ± 0.00041. It also gave a refractive index (Wavelength=706.5 nm, x2 = 0.1827) of 1.35105 ± 0.0004, a refractive index (Wavelength=706.5 nm, x2 = 0.3298) of 1.35092 ± 0.00038 and a refractive index (Wavelength=706.5 nm, x2 = 0.3577) of 1.34984 ± 0.00038. The refractive index (Wavelength=706.5 nm, x2 = 0.4497) was 1.34871 ± 0.00038, the refractive index (Wavelength=706.5 nm, x2 = 0.4525) was 1.34936 ± 0.00038 and the refractive index (Wavelength=706.5 nm, x2 = 0.522) was 1.34709 ± 0.00035. It also gave a refractive index (Wavelength=706.5 nm, x2 = 0.5543) of 1.34616 ± 0.00043, a refractive index (Wavelength=706.5 nm, x2 = 0.609) of 1.34405 ± 0.00034 and a refractive index (Wavelength=706.5 nm, x2 = 0.6529) of 1.34255 ± 0.00034. It also gave a refractive index (Wavelength=706.5 nm, x2 = 0.7504) of 1.33858 ± 0.00034, a refractive index (Wavelength=706.5 nm, x2 = 0.804) of 1.33271 ± 0.00035 and a refractive index (Wavelength=706.5 nm, x2 = 0.807) of 1.33438 ± 0.00034. For the same compound, the refractive index (Wavelength=706.5 nm, x2 = 0.8727) was 1.33146 ± 0.00033, the refractive index (Wavelength=706.5 nm, x2 = 0.9233) was 1.3236 ± 0.00032 and the refractive index (Wavelength=706.5 nm, x2 = 0.9253) was 1.32521 ± 0.00032. For the same compound, the refractive index (Wavelength=706.5 nm, x2 = 0.9527) was 1.32222 ± 0.00032, the refractive index (Wavelength=706.5 nm, x2 = 0.9773) was 1.3193 ± 0.00032 and the refractive index (Wavelength=706.5 nm, x2 = 0.989) was 1.31807 ± 0.00032. It also gave a refractive index (Wavelength=706.5 nm, x2 = 0.9964) of 1.31724 ± 0.00032.
